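Cultured in 96-well plates, cells were exposed to test compound for 48 hours across five concentrations. GI50 = concentration required for 50% inhibition of growth. TGI is the concentration that stops growth completely.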

Among the data in PubChem BioAssay (NCI) are TGI and GI50 values, retold here.

Test systems include MALME-3M melanoma; SK-OV-3 ovarian; UACC-62 melanoma; EKVX NSCLC; 786-0 renal; SW-620 colon; SK-MEL-2 melanoma; TK-10 renal; SN12C renal; ACHN renal.
Test in all cases: NCI-60 cell line screen, 48 h

For `COc1ccc(/C=C/CO)cc1OC`, the TGI in the test with MALME-3M melanoma, in the test with SK-OV-3 ovarian, in the test with UACC-62 melanoma, with EKVX NSCLC, with 786-0 renal and in the test on SW-620 colon was more than 100 µM in each case. Moreover, the TGI in the test with SK-MEL-2 melanoma, with TK-10 renal, in the test on SN12C renal and in the test with ACHN renal was more than 100 µM throughout.
`CCNC1=CC(=O)c2ncccc2C1=O`: the GI50 with MALME-3M melanoma is 1.03 µM; with SK-OV-3 ovarian it was 6.92 µM; in the test with UACC-62 melanoma, 1.06 µM; with EKVX NSCLC, 4.68 µM; in the test with 786-0 renal, 9.09 µM; in the test on SW-620 colon, 1.75 µM. Moreover, the GI50 with SK-MEL-2 melanoma was 2.36 µM; with TK-10 renal, 15.6 µM; with SN12C renal it was 1.4 µM; in the test with ACHN renal, 5.9 µM. Moreover, the TGI in the test with MALME-3M melanoma came to 2.23 µM; in the test with SK-OV-3 ovarian, 19.8 µM; with UACC-62 melanoma it was 2.3 µM; with EKVX NSCLC, 18.5 µM; in the test on 786-0 renal it was 23.4 µM; in the test on SW-620 colon, 4.3 µM. For the same compound, the TGI in the test on SK-MEL-2 melanoma amounted to 7.53 µM; in the test on TK-10 renal, 29.7 µM; with SN12C renal it was 2.78 µM; in the test on ACHN renal, 19.6 µM.
Turning to `CC(C)=CCC[C@](C)(O)[C@H]1CC[C@]2(C)[C@@H]1CC[C@@H]1[C@@]3(C)CC[C@H](OC(=O)CCC(=O)O)C(C)(C)[C@@H]3CC[C@]12C`, the GI50 in the test on MALME-3M melanoma is 16.8 µM; in the test on SK-OV-3 ovarian, 47.6 µM; with UACC-62 melanoma it was 15 µM; in the test on EKVX NSCLC it was 37.9 µM; in the test with 786-0 renal it was more than 100 µM; with SW-620 colon it was 35.4 µM. Moreover, the GI50 in the test on SK-MEL-2 melanoma is 25.3 µM; in the test on TK-10 renal it was 87.8 µM; with SN12C renal, 25.5 µM; in the test with ACHN renal, 28.3 µM. Further, the TGI is 38.6 µM in the test on MALME-3M melanoma; more than 100 µM in the test with SK-OV-3 ovarian; 32.5 µM in the test with UACC-62 melanoma; more than 100 µM in the test with EKVX NSCLC; more than 100 µM with 786-0 renal; more than 100 µM with SW-620 colon. The TGI in the test with SK-MEL-2 melanoma is 85.6 µM; in the test with TK-10 renal, more than 100 µM; in the test with SN12C renal it was 78.1 µM; in the test with ACHN renal, more than 100 µM.
`CCCC/C(C)=N/NC(N)=S`: the TGI with MALME-3M melanoma, in the test on SK-OV-3 ovarian, in the test with UACC-62 melanoma, with EKVX NSCLC, in the test on 786-0 renal and in the test on SW-620 colon was more than 100 µM in each case. The TGI in the test on SK-MEL-2 melanoma, in the test with TK-10 renal, in the test with SN12C renal and in the test on ACHN renal was more than 100 µM in each case.
Regarding `CCCCCCCCSC(SCCCCCCCC)=C1C(=O)N(c2ccccc2)N=C1C`, the TGI in the test with MALME-3M melanoma was more than 100 µM; with SK-OV-3 ovarian it was more than 100 µM; in the test with UACC-62 melanoma, more than 100 µM; in the test with EKVX NSCLC, more than 100 µM; in the test with 786-0 renal it was more than 100 µM; in the test on SW-620 colon, 29 µM. Besides, the TGI in the test with SK-MEL-2 melanoma, in the test on TK-10 renal, with SN12C renal and in the test with ACHN renal was more than 100 µM throughout.
With `Cc1[nH]nc(C(=O)N/N=C/c2cccs2)c1N=NN(C)C`, the TGI in the test with MALME-3M melanoma is 56.7 µM; in the test with SK-OV-3 ovarian it was 43.7 µM; with UACC-62 melanoma it was 51.7 µM; with EKVX NSCLC it was more than 100 µM; in the test with 786-0 renal, 69.6 µM; in the test on SW-620 colon it was 93.5 µM. Moreover, the TGI in the test with SK-MEL-2 melanoma was 79.8 µM; in the test with TK-10 renal, 73.5 µM; in the test with SN12C renal, more than 100 µM; in the test on ACHN renal, 13 µM.
`COc1cc([N+](=O)[O-])c2ncccc2c1O`: the GI50 in the test on MALME-3M melanoma is 1.99 µM; in the test with SK-OV-3 ovarian it was 3.36 µM; in the test on UACC-62 melanoma, 1.94 µM; in the test with EKVX NSCLC, 18.8 µM; in the test with 786-0 renal it was 17.9 µM; with SW-620 colon, 4.07 µM. The GI50 was 9.91 µM in the test with SK-MEL-2 melanoma, 10.7 µM in the test on TK-10 renal, 3.06 µM with SN12C renal and 6.08 µM with ACHN renal. The TGI is 4.74 µM in the test on MALME-3M melanoma; 14.4 µM in the test on SK-OV-3 ovarian; 5.1 µM with UACC-62 melanoma; 78.1 µM in the test on EKVX NSCLC; more than 100 µM in the test on 786-0 renal; more than 100 µM with SW-620 colon. The TGI was 52.4 µM in the test with SK-MEL-2 melanoma, 94.5 µM with TK-10 renal, more than 100 µM in the test on SN12C renal and more than 100 µM with ACHN renal.
For `C[C@@H]1CC[C@H]2C(CN3CCN(CC4=C(C(F)(F)F)O[C@@H]5O[C@@]6(C)CC[C@H]7[C@H](C)CC[C@@H]4[C@@]57OO6)CC3)=C(C(F)(F)F)O[C@@H]3O[C@@]4(C)CC[C@@H]1[C@]32OO4`, the GI50 in the test with MALME-3M melanoma was 2.23 µM; with SK-OV-3 ovarian it was more than 100 µM; with UACC-62 melanoma, 6.35 µM; in the test with EKVX NSCLC, 3.14 µM; in the test on 786-0 renal it was 1.8 µM; in the test on SW-620 colon, 1.12 µM. For the same compound, the GI50 is 10.6 µM in the test with SK-MEL-2 melanoma, 4.2 µM in the test on TK-10 renal, 3.85 µM in the test on SN12C renal and 2.61 µM with ACHN renal. Moreover, the TGI with MALME-3M melanoma is more than 25.8 µM; in the test on SK-OV-3 ovarian it was more than 100 µM; with UACC-62 melanoma, more than 100 µM; with EKVX NSCLC, more than 100 µM; with 786-0 renal it was more than 37.3 µM; in the test with SW-620 colon, more than 100 µM. Moreover, the TGI in the test on SK-MEL-2 melanoma is more than 100 µM; with TK-10 renal, 99.7 µM; with SN12C renal, more than 100 µM; in the test with ACHN renal it was more than 27.2 µM.
On to `CN(NC(=O)/C(=C/C=C/c1ccccc1)NC(=O)c1ccccc1)C1=C(Cl)C(=O)[N+](c2ccccc2)=CC1`, for which the TGI in the test on MALME-3M melanoma was more than 100 µM; in the test on SK-OV-3 ovarian, more than 100 µM; with EKVX NSCLC, more than 100 µM; in the test with 786-0 renal, 39.2 µM; in the test on SW-620 colon, 33.8 µM; in the test with SK-MEL-2 melanoma, 70.9 µM. The TGI was more than 100 µM in the test on TK-10 renal, 66 µM in the test with SN12C renal and 81 µM in the test with ACHN renal.
Take `C[P+](C)(CC(F)(F)F)c1ccccc1`: the TGI in the test on MALME-3M melanoma, in the test on SK-OV-3 ovarian, with UACC-62 melanoma, in the test on EKVX NSCLC, in the test with 786-0 renal and in the test with SW-620 colon was more than 100 µM in each case. Besides, the TGI in the test on SK-MEL-2 melanoma, in the test on TK-10 renal, in the test on SN12C renal and with ACHN renal was more than 100 µM throughout.
For the compound `COc1cc(SC)ccc1C(=O)N1CCCC(C)C1` (stereo not given), the GI50 in the test on MALME-3M melanoma, with SK-OV-3 ovarian, with UACC-62 melanoma, in the test on 786-0 renal, in the test on SW-620 colon and with SK-MEL-2 melanoma was more than 100 µM in each case. For the same compound, the GI50 with TK-10 renal, in the test with SN12C renal and in the test on ACHN renal was more than 100 µM throughout. Also, the TGI in the test on MALME-3M melanoma, in the test on SK-OV-3 ovarian, in the test on UACC-62 melanoma, with 786-0 renal, with SW-620 colon and with SK-MEL-2 melanoma was more than 100 µM throughout. In addition, the TGI in the test with TK-10 renal, in the test on SN12C renal and with ACHN renal was more than 100 µM each time.
In the case of `Cc1ccc(NC(=O)NC23CC4CC(CC(F)(C4)C2)C3)cc1`, the TGI with MALME-3M melanoma, with SK-OV-3 ovarian, in the test with UACC-62 melanoma, in the test on EKVX NSCLC, in the test on 786-0 renal and with SW-620 colon was more than 100 µM each time. Moreover, the TGI in the test on SK-MEL-2 melanoma, in the test with TK-10 renal and in the test on ACHN renal was more than 100 µM each time.
For `COc1ccc(-c2nc(N)nc(-c3cc(C)ccc3O)c2Cl)cc1`, the TGI was more than 100 µM in the test on MALME-3M melanoma; 94.2 µM in the test on SK-OV-3 ovarian; more than 100 µM in the test on UACC-62 melanoma; more than 100 µM in the test on EKVX NSCLC; more than 100 µM in the test with 786-0 renal; more than 100 µM in the test with SW-620 colon. Besides, the TGI was 86.4 µM in the test with TK-10 renal, more than 100 µM in the test with SN12C renal and more than 100 µM in the test on ACHN renal.
For the compound `OCC(O)C(OC1OC(CO)C(O)C(O)C1O)c1nn(-c2ccc(F)cc2)c2nc3cc(Cl)c(Cl)cc3cc12` (stereo not given), the TGI in the test on MALME-3M melanoma, in the test on SK-OV-3 ovarian, with UACC-62 melanoma, in the test on EKVX NSCLC, with 786-0 renal and with TK-10 renal was more than 100 µM each time. In addition, the TGI in the test on SN12C renal and in the test on ACHN renal was more than 100 µM each time.
As to `Fc1ccc(-c2c(-c3ccncc3)n(CCN3CCOCC3)c3cccnc23)cc1`, the GI50 in the test on MALME-3M melanoma, in the test with SK-OV-3 ovarian, with UACC-62 melanoma, in the test on 786-0 renal, with SW-620 colon and in the test on SK-MEL-2 melanoma was more than 25 µM in each case. For the same compound, the GI50 in the test on TK-10 renal, in the test on SN12C renal and in the test with ACHN renal was more than 25 µM each time. The TGI in the test with MALME-3M melanoma, with SK-OV-3 ovarian, in the test on UACC-62 melanoma, in the test on 786-0 renal, with SW-620 colon and in the test on SK-MEL-2 melanoma was more than 25 µM each time. In addition, the TGI in the test on TK-10 renal, in the test on SN12C renal and in the test with ACHN renal was more than 25 µM in each case.
`S=C1OC2C3C4CC5C3C(O1)C1C5C4C21` (stereo not given): the TGI in the test on MALME-3M melanoma, with SK-OV-3 ovarian, in the test with UACC-62 melanoma, in the test with EKVX NSCLC, in the test with 786-0 renal and in the test with SW-620 colon was more than 100 µM each time. The TGI in the test with TK-10 renal, in the test on SN12C renal and with ACHN renal was more than 100 µM each time.
